Test results published in patent publication US10105357B2, “Indication of antibiotic drugs for preparation of cancer inhibition pharmaceutical composition” (LAUNX BIOMEDICAL CO., LTD., priority 2014, dated 2018).
Counter-ions that a name gives are not always drawn. Like-named read-outs stand apart in the source and are kept apart here.

Tests used:
Type in all cases: cell-based, human
[1] = tested on: AGS (Gastric Adenocarcinoma); experiment: Cell viability analysis, gastric cancer AGS; conditions: Homo sapiens, 72 h
[2] = tested on: HeLa (Cervix Adenocarcinoma); experiment: Cell viability analysis, cervical cancer HeLa; conditions: Homo sapiens, HeLa, 72 h
[3] = tested on: A375 (Amelanotic Melanoma); experiment: Cell viability analysis, skin cancer A375; conditions: Homo sapiens, A-375, 72 h
[4] = tested on: MKN-45 (Gastric Adenocarcinoma); experiment: Cell viability analysis, gastric cancer MKN-45; conditions: Homo sapiens, MKN-45, 72 h
[5] = tested on: HepG2 (Hepatocellular Carcinoma); experiment: Cell viability analysis, hepatic cancer HepG2; conditions: Homo sapiens, HepG2, 72 h
[6] = tested on: TSGH-8301 (Urinary Bladder Carcinoma); experiment: Cell viability analysis, bladder cancer TSGH-8301; conditions: Homo sapiens, 72 h
[7] = tested on: LoVo (Colorectal Adenocarcinoma); experiment: Cell viability analysis, colon cancer LoVo; conditions: Homo sapiens, LoVo, 72 h
[8] = tested on: HI650 (Lung Adenocarcinoma); experiment: Cell viability analysis, lung cancer HI650; conditions: Homo sapiens, NCI-H1650, 72 h
[9] = tested on: A549 (Lung Adenocarcinoma); experiment: Cell viability analysis, lung cancer A549; conditions: Homo sapiens, A549, 72 h
[10] = tested on: HL-60 (Acute Promyelocytic Leukemia); experiment: Cell viability analysis, leukemia HL-60; conditions: Homo sapiens, HL-60, 72 h
[11] = tested on: PC3 (p53−) (Prostate Adenocarcinoma); experiment: Cell viability analysis, prostate cancer PC3; conditions: Homo sapiens, 72 h
[12] = tested on: MCF7 (Mammary Gland, Adenocarcinoma); experiment: Cell viability analysis, breast cancer MCF7; conditions: Homo sapiens, MCF7, 72 h
cancer cell lines = experiment: Cell viability analysis (WST-1) on cancer cell lines; conditions: drug 10 μM, 72 hours, WST-1; Table 3
[13] = read-out: cell viability (survival rate), LoVo, drug 10 μM, 72 hours, WST-1, OD450 nm
[14] = read-out: cell viability (survival rate), AGS, drug 10 μM, 72 hours, WST-1, OD450 nm
[15] = read-out: cell viability (survival rate), HeLa, drug 10 μM, 72 hours, WST-1, OD450 nm
[16] = read-out: cell viability (survival rate), A375, drug 10 μM, 72 hours, WST-1, OD450 nm
[17] = read-out: cell viability (survival rate), MKN-45, drug 10 μM, 72 hours, WST-1, OD450 nm
[18] = read-out: cell viability (survival rate), HepG2, drug 10 μM, 72 hours, WST-1, OD450 nm
[19] = read-out: cell viability (survival rate), TSGH, drug 10 μM, 72 hours, WST-1, OD450 nm
[20] = read-out: cell viability (survival rate), H1650, drug 10 μM, 72 hours, WST-1, OD450 nm
[21] = read-out: cell viability (survival rate), A549, drug 10 μM, 72 hours, WST-1, OD450 nm
[22] = read-out: cell viability (survival rate), HL-60, drug 10 μM, 72 hours, WST-1, OD450 nm
[23] = read-out: cell viability (survival rate), PC3, drug 10 μM, 72 hours, WST-1, OD450 nm
[24] = read-out: cell viability (survival rate), MCF7, drug 10 μM, 72 hours, WST-1, OD450 nm

## COc1cc(C)c(/C=C/C(C)=C/C=C/C(C)=C/C(=O)O)c(C)c1C [Acitretin]
[1]; read-out: cell viability (survival rate), AGS
  viability at 10 µM: 68.1%
[2]; read-out: cell viability (survival rate), HeLa
  viability at 10 µM: 52.7%
[3]; read-out: cell viability (survival rate), A375
  viability at 10 µM: 61.4%
[4]; read-out: cell viability (survival rate), MKN-45
  viability at 10 µM: 78.5%
[5]; read-out: cell viability (survival rate), HepG2
  viability at 10 µM: 72.6%
[6]; read-out: cell viability (survival rate), TSGH
  viability at 10 µM: 127%
[7]; read-out: cell viability (survival rate), LoVo
  viability at 10 µM: 83.6%
[8]; read-out: cell viability (survival rate), H1650
  viability at 10 µM: 43.8%
[9]; read-out: cell viability (survival rate), A549
  viability at 10 µM: 69.1%
[10]; read-out: cell viability (survival rate), HL-60
  viability at 10 µM: 96.7%
[11]; read-out: cell viability (survival rate), PC3
  viability at 10 µM: 92.5%
[12]; read-out: cell viability (survival rate), MCF7
  viability at 10 µM: 119%
Cancer cell lines
  inhibition effect on different cancer cell lines: significant inhibition effect

## NCC[C@H](O)C(=O)N[C@@H]1C[C@H](N)[C@@H](O[C@H]2O[C@H](CN)[C@@H](O)[C@H](O)[C@H]2O)[C@H](O)[C@H]1O[C@H]1O[C@H](CO)[C@@H](O)[C@H](N)[C@H]1O [Amikacin hydrate]
[1]; drug 10 μM, 72 hours, WST-1, OD450 nm, read-out: cell viability (survival rate), AGS
  viability at 10 µM: 85.8%
[2]; drug 10 μM, 72 hours, WST-1, OD450 nm, read-out: cell viability (survival rate), HeLa
  viability at 10 µM: 96.3%
[3]; drug 10 μM, 72 hours, WST-1, OD450 nm, read-out: cell viability (survival rate), A375
  viability at 10 µM: 87.7%
[4]; drug 10 μM, 72 hours, WST-1, OD450 nm, read-out: cell viability (survival rate), MKN-45
  viability at 10 µM: 104%
[5]; drug 10 μM, 72 hours, WST-1, OD450 nm, read-out: cell viability (survival rate), HepG2
  viability at 10 µM: 88.4%
[6]; drug 10 μM, 72 hours, WST-1, OD450 nm, read-out: cell viability (survival rate), TSGH
  viability at 10 µM: 138%
[7]; [13]
  viability at 10 µM: 99%
[8]; drug 10 μM, 72 hours, WST-1, OD450 nm, read-out: cell viability (survival rate), H1650
  viability at 10 µM: 87.7%
[9]; drug 10 μM, 72 hours, WST-1, OD450 nm, read-out: cell viability (survival rate), A549
  viability at 10 µM: 111%
[10]; drug 10 μM, 72 hours, WST-1, OD450 nm, read-out: cell viability (survival rate), HL-60
  viability at 10 µM: 108%
[11]; drug 10 μM, 72 hours, WST-1, OD450 nm, read-out: cell viability (survival rate), PC3
  viability at 10 µM: 102%
[12]; drug 10 μM, 72 hours, WST-1, OD450 nm, read-out: cell viability (survival rate), MCF7
  viability at 10 µM: 81.4%
Cancer cell lines
  inhibition effect on different cancer cell lines: significant inhibition effect

## CCC(C)(C)c1ccc(CC(C)CN2C[C@@H](C)O[C@@H](C)C2)cc1 (stereo partly shown) [Amorolfine Hydrochloride]
[1]; [14]
  viability at 10 µM: 94.4%
[2]; [15]
  viability at 10 µM: 84.6%
[3]; [16]
  viability at 10 µM: 98.6%
[4]; [17]
  viability at 10 µM: 65.1%
[5]; [18]
  viability at 10 µM: 91.6%
[6]; [19]
  viability at 10 µM: 88.5%
[7]; [13]
  viability at 10 µM: 99.7%
[8]; [20]
  viability at 10 µM: 79.6%
[9]; [21]
  viability at 10 µM: 104%
[10]; [22]
  viability at 10 µM: 104%
[11]; [23]
  viability at 10 µM: 104%
[12]; [24]
  viability at 10 µM: 104%
Cancer cell lines
  inhibition effect on different cancer cell lines: significant inhibition effect

## C[C@@H]1[C@H](O)[C@@H](C)/C=C/C=C/C=C/C=C/C=C/C=C/C=C/[C@H](O[C@@H]2O[C@H](C)[C@@H](O)[C@H](N)[C@@H]2O)C[C@@H]2O[C@](O)(C[C@@H](O)C[C@@H](O)[C@H](O)CC[C@@H](O)C[C@@H](O)CC(=O)O[C@H]1C)C[C@H](O)[C@H]2C(=O)O [Amphotericin B (Abelcet), Amphotericin B]
[1]; [14]
  viability at 10 µM: 28.5%
[2]; [15]
  viability at 10 µM: 84.5%
[3]; [16]
  viability at 10 µM: 98.9%
[4]; [17]
  viability at 10 µM: 44%
[5]; [18]
  viability at 10 µM: 90.3%
[6]; [19]
  viability at 10 µM: 56%
[7]; [13]
  viability at 10 µM: 66.5%
[8]; [20]
  viability at 10 µM: 61.2%
[9]; [21]
  viability at 10 µM: 45%
[10]; [22]
  viability at 10 µM: 116%
[11]; [23]
  viability at 10 µM: 66.9%
[12]; [24]
  viability at 10 µM: 38.9%
Cancer cell lines
  inhibition effect on different cancer cell lines: significant inhibition effect
